Key:
human MetAP2 enzyme [1] = biological target: T1, human MetAP2 enzyme (Homo sapiens, UniProt P50579); experiment: MetAP2 enzyme assay, enzyme complexed with cobalt ions; details: MetAP2 Co pIC50, MetAP2 enzyme complexed with cobalt ions; Met-AMC substrate at Km
human MetAP2 enzyme [2] = biological target: T1, human MetAP2 enzyme; experiment: MetAP2 enzyme assay, enzyme complexed with manganese ions; details: MetAP2 Mn pIC50, MetAP2 enzyme complexed with manganese ions; Met-AMC substrate at Km
Procedure: DNA encoding the full-length sequence of human MetAP2 enzyme is amplified by PCR and cloned into a pFastBac expression vector (Invitrogen). Recombinant baculovirus incorporating the MetAP2 construct is generated by transposition using the Bac-to-Bac system (Invitrogen). The expression of recombinant protein is carried out by infection of Spodoptera frugiperda Sf9 cells (Invitrogen) in 5 L Wave Bioreactors (Wave Biotech). Recombinant protein is isolated from cellular extracts by binding to an SP Hitrap Fast Flow or SP Sepharose (Sigma) column, and the protein is eluted using a NaCl gradient. Partially purified extracts of MetAP2 are further purified by an AKTA FPLC over a Superdex-200 column (GE). The purity of MetAP2 protein is determined on denaturing SDS-PAGE gel.
The results for each well are expressed as percent inhibition and calculated using the equation:

T1 sequence (P50579 whole entry): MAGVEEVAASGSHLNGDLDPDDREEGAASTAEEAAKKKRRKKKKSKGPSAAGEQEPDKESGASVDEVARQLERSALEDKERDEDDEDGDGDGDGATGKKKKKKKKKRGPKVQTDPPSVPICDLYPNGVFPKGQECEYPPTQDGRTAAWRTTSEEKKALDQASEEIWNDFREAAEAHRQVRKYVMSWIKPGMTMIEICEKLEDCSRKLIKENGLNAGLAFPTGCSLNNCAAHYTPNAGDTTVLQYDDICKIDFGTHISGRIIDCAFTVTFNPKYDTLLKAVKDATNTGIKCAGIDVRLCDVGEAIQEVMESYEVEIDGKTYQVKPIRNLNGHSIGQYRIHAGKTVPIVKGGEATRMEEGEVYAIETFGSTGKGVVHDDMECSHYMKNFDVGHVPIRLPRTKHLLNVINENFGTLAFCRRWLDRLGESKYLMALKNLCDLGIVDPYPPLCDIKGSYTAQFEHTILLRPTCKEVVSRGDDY

IC50 (human MetAP2 enzyme [1]) [nM]	IC50 (human MetAP2 enzyme [2]) [nM]	SMILES
25.1	7.94	O=C(NC1CC1)c1ccc(-c2cc(C(F)(F)F)cc3[nH]ncc23)cc1 [Example 35, N-cyclopropyl-4-(6-(trifluoromethyl)-1H-indazol-4-yl)benzamide]
1260	31.6	NC(=O)c1ccccc1-c1cc(C(F)(F)F)cc2[nH]ncc12 [Example 10, 2-(6-(trifluoromethyl)-1H-indazol-4-yl)benzamide]
63.1	5.01	NC(=O)c1ccc(-c2cc(C(F)(F)F)cc3[nH]ncc23)cn1 [Example 251, 5-(6-(trifluoromethyl)-1H-indazol-4-yl)picolinamide]
50.1	6.31	CN1CCN(C(=O)c2cc(-c3cc(C(F)(F)F)cc4[nH]ncc34)cnc2N)CC1 [Example 282, (2-amino-5-(6-(trifluoromethyl)-1H-indazol-4-yl)pyridin-3-yl)(4-methylpiperazin-1-yl)methanone]
794	12.6	Cc1cn(C)c(-c2cc(C(F)(F)F)cc3[nH]ncc23)n1 [Example 163, 4-(1,4-dimethyl-1H-imidazol-2-yl)-6-(trifluoromethyl)-1H-indazole]
79.4	6.31	O=C(NCCO)c1cc(-c2cc(C(F)(F)F)cc3[nH]ncc23)ccn1 [Example 308, N-(2-hydroxyethyl)-4-(6-(trifluoromethyl)-1H-indazol-4-yl)picolinamide]
63.1	6.31	COc1cncc(-c2cc(C(F)(F)F)cc3[nH]ncc23)c1 [Example 42, 4-(5-methoxypyridin-3-yl)-6-(trifluoromethyl)-1H-indazole]
50.1	15.8	Cc1ccc(C(=O)N2CCC(CO)C2)cc1-c1cc(C(F)(F)F)cc2[nH]ncc12 (stereo not drawn) [Example 371, (3-(hydroxymethyl)pyrrolidin-1-yl)(4-methyl-3-(6-(trifluoromethyl)-1H-indazol-4-yl)phenyl)methanone]
158	6.31	NC(=O)c1cc(-c2cc(C(F)(F)F)cc3[nH]ncc23)c[nH]c1=O [Example 231, 2-oxo-5-(6-(trifluoromethyl)-1H-indazol-4-yl)-1,2-dihydropyridine-3-carboxamide]
20	3.98	FC(F)(F)c1cc(-c2ccc(N3CCOCC3)nc2)c2cn[nH]c2c1 [Example 89, 4-(5-(6-(trifluoromethyl)-1H-indazol-4-yl)pyridin-2-yl)morpholine]
501	10	C[C@@H](O)CNC(=O)c1cc(-c2cc(C(F)(F)F)cc3[nH]ncc23)c(=O)n(C)c1 [Example 358, (R)—N-(2-hydroxypropyl)-1-methyl-6-oxo-5-(6-(trifluoromethyl)-1H-indazol-4-yl)-1,6-dihydropyridine-3-carboxamide]
79.4	7.94	CN1CCN(C(=O)c2cc(-c3cc(C(F)(F)F)cc4[nH]ncc34)ccn2)CC1 [Example 284, (4-methylpiperazin-1-yl)(4-(6-(trifluoromethyl)-1H-indazol-4-yl)pyridin-2-yl)methanone]
100	6.31	NC(=O)Cn1cc(-c2cc(C(F)(F)F)cc3[nH]ncc23)cn1 [Example 264, 2-(4-(6-(trifluoromethyl)-1H-indazol-4-yl)-1H-pyrazol-1-yl)acetamide]
39.8	6.31	Cc1cc(=O)[nH]cc1-c1cc(C(F)(F)F)cc2[nH]ncc12 [Example 390, 4-methyl-5-(6-(trifluoromethyl)-1H-indazol-4-yl)pyridin-2(1H)-one]
126	5.01	FC(F)(F)c1cc(-c2cnc3ccnn3c2)c2cn[nH]c2c1 [Example 275, 6-(6-(trifluoromethyl)-1H-indazol-4-yl)pyrazolo[1,5-a]pyrimidine]
31.6	3.16	N#CCc1cccc(-c2cc(C(F)(F)F)cc3[nH]ncc23)c1 [Example 90, 2-(3-(6-(trifluoromethyl)-1H-indazol-4-yl)phenyl)acetonitrile]
39.8	6.31	Cc1c(-c2cc(C(F)(F)F)cc3[nH]ncc23)c(N)nn1C [Example 381, 1,5-dimethyl-4-(6-(trifluoromethyl)-1H-indazol-4-yl)-1H-pyrazol-3-amine]
31.6	7.94	COc1ccc(CC(N)=O)cc1-c1cc(C(F)(F)F)cc2[nH]ncc12 [Example 350, 2-(4-methoxy-3-(6-(trifluoromethyl)-1H-indazol-4-yl)phenyl)acetamide]
39.8	3.16	Cc1c(-c2cc(C(F)(F)F)cc3[nH]ncc23)ccc(=O)n1C [Example 402, 1,6-dimethyl-5-(6-(trifluoromethyl)-1H-indazol-4-yl)pyridin-2(1H)-one]
25.1	6.31	FC(F)(F)c1cc(-c2cnc3c(c2)OCCN3)c2cn[nH]c2c1 [Example 4, 7-(6-(trifluoromethyl)-1H-indazol-4-yl)-3,4-dihydro-2H-pyrido[3,2-b][1,4]oxazine]

IC50 (human MetAP2 enzyme [1]) [nM]	IC50 (human MetAP2 enzyme [2]) [nM]	SMILES
158	25.1	CC(C)CNC(=O)c1cccc(-c2cc(C(F)(F)F)cc3[nH]ncc23)c1 [Example 28, N-isobutyl-3-(6-(trifluoromethyl)-1H-indazol-4-yl)benzamide]
631	79.4	COc1cccnc1-c1cc(C(F)(F)F)cc2[nH]ncc12 [Example 213, 4-(3-methoxypyridin-2-yl)-6-(trifluoromethyl)-1H-indazole]
63.1	3.98	COC(=O)c1ccc(-c2cc(C(F)(F)F)cc3[nH]ncc23)cn1 [Example 269, methyl 5-(6-(trifluoromethyl)-1H-indazol-4-yl)picolinate]
15.8	10	O=C(NCCO)c1ccc(-c2cc(C(F)(F)F)cc3[nH]ncc23)c(Cl)c1 [Example 331, 3-chloro-N-(2-hydroxyethyl)-4-(6-(trifluoromethyl)-1H-indazol-4-yl)benzamide]
79.4	15.8	Cc1cc(=O)n(Cc2ccccn2)cc1-c1cc(C(F)(F)F)cc2[nH]ncc12 [Example 406, 4-methyl-1-(pyridin-2-ylmethyl)-5-(6-(trifluoromethyl)-1H-indazol-4-yl)pyridin-2(1H)-one]
39.8	20	CCN(CC)C(=O)c1cccc(-c2cc(C(F)(F)F)cc3[nH]ncc23)c1 [Example 32, N,N-diethyl-3-(6-(trifluoromethyl)-1H-indazol-4-yl)benzamide]
39.8	15.8	FC(F)(F)c1cc(-c2cccnc2OC2CCCC2)c2cn[nH]c2c1 [Example 98, 4-(2-(cyclopentyloxy)pyridin-3-yl)-6-(trifluoromethyl)-1H-indazole]
631	63.1	Cc1nn(C)c(C(N)=O)c1-c1cc(C(F)(F)F)cc2[nH]ncc12 [Example 327, 1,3-dimethyl-4-(6-(trifluoromethyl)-1H-indazol-4-yl)-1H-pyrazole-5-carboxamide]
794	100	Cc1ncc(-c2cc(C(F)(F)F)cc3[nH]ncc23)n1C [Example 146, 4-(1,2-dimethyl-1H-imidazol-5-yl)-6-(trifluoromethyl)-1H-indazole]
158	5.01	FC(F)(F)c1cc(-c2cnc3[nH]ccc3n2)c2cn[nH]c2c1 [Example 240, 2-(6-(trifluoromethyl)-1H-indazol-4-yl)-5H-pyrrolo[2,3-b]pyrazine]
79.4	39.8	COc1ccn2c(-c3cc(C(F)(F)F)cc4[nH]ncc34)cnc2c1C#N [Example 160, 7-methoxy-3-(6-(trifluoromethyl)-1H-indazol-4-yl)imidazo[1,2-a]pyridine-8-carbonitrile]
50.1	6.31	FC(F)(F)c1cc(-c2cnc3[nH]c(C(F)(F)F)nc3c2)c2cn[nH]c2c1 [Example 242, 2-(trifluoromethyl)-6-(6-(trifluoromethyl)-1H-indazol-4-yl)-3H-imidazo[4,5-b]pyridine]
631	10	Cn1cc(-c2cc(C(F)(F)F)cc3[nH]ncc23)c(=O)[nH]c1=O [Example 278, 1-methyl-5-(6-(trifluoromethyl)-1H-indazol-4-yl)pyrimidine-2,4(1H,3H)-dione]
158	5.01	O=C(NCCO)c1cc(-c2cc(C(F)(F)F)cc3[nH]ncc23)c[nH]c1=O [Example 228, N-(2-hydroxyethyl)-2-oxo-5-(6-(trifluoromethyl)-1H-indazol-4-yl)-1,2-dihydropyridine-3-carboxamide]
10	12.6	COCc1[nH]nc(C)c1-c1cc(C(F)(F)F)cc2[nH]ncc12 [Example 323, 4-(5-(methoxymethyl)-3-methyl-1H-pyrazol-4-yl)-6-(trifluoromethyl)-1H-indazole]
158	10	CN(C)C(=O)c1cc(F)cc(-c2cc(C(F)(F)F)cc3[nH]ncc23)c1 [Example 115, 3-fluoro-N,N-dimethyl-5-(6-(trifluoromethyl)-1H-indazol-4-yl)benzamide]
1000	20	Cn1cc(-c2cc(C(F)(F)F)cc3[nH]ncc23)c(=O)n(CC(=O)N2CCOCC2)c1=O [Example 310, 1-methyl-3-(2-morpholino-2-oxoethyl)-5-(6-(trifluoromethyl)-1H-indazol-4-yl)pyrimidine-2,4(1H,3H)-dione]
50.1	7.94	Cc1cc(-c2cc(C(F)(F)F)cc3[nH]ncc23)n(C)n1 [Example 126, 4-(1,3-dimethyl-1H-pyrazol-5-yl)-6-(trifluoromethyl)-1H-indazole]
63.1	25.1	COc1ccc(C(=O)N2CCN(C)C(=O)C2)cc1-c1cc(C(F)(F)F)cc2[nH]ncc12 [Example 325, 4-(4-methoxy-3-(6-(trifluoromethyl)-1H-indazol-4-yl)benzoyl)-1-methylpiperazin-2-one]

— US9434743B2, “Indazole derivatives” (TAKEDA PHARMACEUTICAL COMPANY LIMITED, priority 2012, dated 2016)
